Assay results published in US20090069442A1, “Therapeutic Agent for Sensory Abnormality” (priority 2005, published 2009).
Blank lines part the entries; values can stand above or below the compound they belong to.

Key:
[1] = system: sciatic nerve entrapment model rats (Bennett model rats); test: Analgesic effect in partial nerve injury models, paw pressure (Randall-Selitto) method; format: in vivo, Spraugue-Dawley rats; conditions: for pain threshold of the nerve-injured paw: started after hyperalgesia confirmed, FIG. 2
Method: (§1) For a hyperalgesia model animal, sciatic nerve entrapment model rats (Bennett model rats) serving as partial nerve injury models, were used. That is, four-week-old male Spraugue-Dawley rats (Japan SLC, Inc.) were housed under a constant temperature and humidity condition for a week. Then, under anesthesia with pentobarbital (50 mg/kg), the sciatic nerve in the left hind paw was stripped from tissue, and raised using tweezers to slightly stretch the axon part. […] The right hind paw was left untreated for use as a normal paw. The operated site was disinfected with Isodine everyday in the first post-operative week to prevent infection.
As the test substance, 3-(15-hydroxypentadecyl)-2,4,4-trimethyl-2-cyclohexen-1-one (hereafter, also referred to as compound 24) synthesized in Preparation Example 24 was used.
Rats showing reduction of pain threshold by 30% or more in the nerve-injured paw, and change in pain threshold within a range of 5% in the normal paw, as compared to preoperative values, were used for the experiment. Prior to administration of the test substance, the nerve-injured paw (operated side) and the normal paw (untreated side) of each individual were subjected to an analgesic test. Furthermore, the test substance-administered group was intraperitoneally administered with a single dose of the test substance (8 mg/kg, 24 mg/kg, and 40 mg/kg) everyday for a week. The control group was administered with the vehicle of the test substance during the same period. After one week from the start of administration, the nerve-injured paw (operated side) and the normal paw (untreated side) of each rat were again subjected to an analgesic test.
The paw pressure (Randall-Selitto) method using pressure stimuli was employed as the analgesic test. Mechanical pressure stimuli were applied on the dorsal portion of the rat hind paw by an analgesimeter, and the minimum value of pressure stimulus at which vocalization or withdrawal occurred was defined as pain threshold. In the measurement of pain threshold according to the paw pressure method, a rat has to be held down and restrained. […]

[2] = system: sciatic nerve entrapment model rats (Bennett model rats); test: Injury-preventive effect in partial nerve injury models, paw pressure (Randall-Selitto) method; format: in vivo, Spraugue-Dawley rats
Method: as §1, with “and used” for “for use”
As the test substance, compound 24 synthesized in Preparation Example 24 was used.
The nerve-injured paw (operated side) and the normal paw (untreated side) of each individual were previously subjected to an analgesic test, subsequently followed by Bennett operation. Furthermore, a single dose of the test substance (8 mg/kg) was intraperitoneally administered from the day of the operation, everyday for a week. The control group was administered with the vehicle of the test substance during the same period. After one week from the start of administration, the nerve injured paw (operated side) and the normal paw (untreated side) of each rat were again subjected to an analgesic test. […]

[3] = system: STZ-induced diabetic model mice; test: Improving effect in dullness models, formaldehyde-induced licking and biting behavior; format: in vivo, ddY mice; conditions: a week of intraperitoneal administration (8, 24 and 40 mg/kg) with the STZ administration; 1% formaldehyde into plantar; FIG. 4
Method: Four-week-old male ddY mice were administered with a single dose of streptozotocin (hereunder, also referred to as STZ) (200 mg/kg) by tail vein injection, everyday for a week. For 24 hours after STZ administration, the rats were allowed to freely take a 10% glucose solution instead of drinking water, and then allowed to freely take distilled water. As the test substance, compound 24 synthesized in Preparation Example 24 was used. Concurrently with the start of STZ administration, the test substance-administration group was intraperitoneally administered with a single dose of the test substance (8 mg/kg, 24 mg/kg, and 40 mg/kg) everyday for a week. The control group was administered with the vehicle of the test substance during the same period. The blood glucose level of the tail venous blood was measured by a blood glucose meter (DEXTER ZII: Bayer Medical Ltd.). Individuals with a blood sugar level of 400 mg/dL or more, were used for the experiment. After a week of STZ administration, the mice were subcutaneously injected with 1% formaldehyde solution (20 μL) into the plantar of the left hind paw. The total time spent for licking (licking of plantar of the left hind paw) behavior and biting (biting of plantar of the left hind paw) behavior was scored every 5 minutes after administration, for 60 minutes.

Compound: O=C1C=C(CCCCCCCCCCCCCCO)CCC1 [Preparation Example 5, 3-(14-hydroxytetradecyl)-2-cyclohexen-1-one]
melting point: 44 to 45 °C

Compound: O=C1C=C(CCCCCCCCCCCCCO)CCC1 [Preparation Example 4, 3-(13-hydroxytridecyl)-2-cyclohexen-1-one]
melting point: 42 to 43 °C

Compound: CC1=C(CCCCCCCCCCCCCCCO)C(C)(C)CCC1=O [compound 24, 3-(15-hydroxypentadecyl)-2,4,4-trimethyl-2-cyclohexen-1-one]
pain threshold of the nerve-injured paw ([1]; 24 mg/kg intraperitoneally once a day for a week): significant increase in pain threshold
pain threshold of the nerve-injured paw ([1]; 40 mg/kg intraperitoneally once a day for a week): significant increase in pain threshold
pain threshold of the normal paw ([1]; normal paw (untreated side), after the one-week administration period, intraperitoneal): no significant change in pain threshold
pain threshold of the nerve-injured paw after the Bennett operation ([2]; 8 mg/kg intraperitoneally from the day of the operation, everyday for a week, FIG. 3): no significant change in pain threshold
pain threshold of the normal paw ([2]; normal paw (untreated side), 8 mg/kg intraperitoneally everyday for a week): no significant change in pain threshold
Phase II pain response (total time spent for licking and biting behavior) [3]: improved Phase II torpor

Results, then the compound that gave them:

melting point: 35 to 36 °C
Compound: O=C1C=C(CCCCCCCCCCCCO)CCC1 [Preparation Example 3, 3-(12-hydroxydodecyl)-2-cyclohexen-1-one]

melting point: 34 to 35 °C
Compound: O=C1C=C(CCCCCCCCCCCO)CCC1 [Preparation Example 2, 3-(11-hydroxyundecyl)-2-cyclohexen-1-one]
